Experimental findings from article PMC5451472, “Novel Locally Active Estrogens Accelerate Cutaneous Wound Healing-Part 2” (Scientific Reports, 2017) are described below.

In general, EC50 refers to the concentration that produces a half-maximal response. For orientation: fold induction means the ratio of treated to control signal. Low readings indicate a weak induction, high ones a strong induction.

For series [1], the system named is MITO-Luc mice. Briefly: Macrophage count (Iba1 immunohistochemistry) around the wound site. The class given is in vivo, mouse. Particulars: 200 µg/kg s.c., 72 hours after treatment. As to the method: To better understand whether the healing effect of 1e could be attributed to its anti-inflammatory action, at the end of in vivo imaging (72 hours after treatments) the tissue surrounding the wound was dissected and subjected immunohistochemical analysis using the pan macrophage marker Iba1. […] This observation confirmed that the estrogenic compounds were able to regulate the immune response at local level.
In particular, the criteria for the assignation of granulations value are: 1 = wound bed partially covered with granulation tissue; 2 = thin granulation over the whole wound bed; 3 = thick granulation over the whole wound bed. Evaluation of macrophages was done through a specific antibody and digital image analysis: 4 µm sections from each wound healing sample were immunostained with primary rabbit […] antibody against Iba1 antigen (Wako; #019-19741) to assess the number of macrophages.
The number of positive cells were counted using the ImageJ analysis program (http://rsb.info.nih.gov/ij/) in 400x microscopic fields selected at the periphery of the wound area.

The target in the next series is T1, ERs (Homo sapiens, UniProt P03372).
T1 construct: endogenous in cells; host or cells: MCF-7, clone ERE-Luc B17 (only the luciferase reporter is transfected)
T1 sequence (P03372 1-595): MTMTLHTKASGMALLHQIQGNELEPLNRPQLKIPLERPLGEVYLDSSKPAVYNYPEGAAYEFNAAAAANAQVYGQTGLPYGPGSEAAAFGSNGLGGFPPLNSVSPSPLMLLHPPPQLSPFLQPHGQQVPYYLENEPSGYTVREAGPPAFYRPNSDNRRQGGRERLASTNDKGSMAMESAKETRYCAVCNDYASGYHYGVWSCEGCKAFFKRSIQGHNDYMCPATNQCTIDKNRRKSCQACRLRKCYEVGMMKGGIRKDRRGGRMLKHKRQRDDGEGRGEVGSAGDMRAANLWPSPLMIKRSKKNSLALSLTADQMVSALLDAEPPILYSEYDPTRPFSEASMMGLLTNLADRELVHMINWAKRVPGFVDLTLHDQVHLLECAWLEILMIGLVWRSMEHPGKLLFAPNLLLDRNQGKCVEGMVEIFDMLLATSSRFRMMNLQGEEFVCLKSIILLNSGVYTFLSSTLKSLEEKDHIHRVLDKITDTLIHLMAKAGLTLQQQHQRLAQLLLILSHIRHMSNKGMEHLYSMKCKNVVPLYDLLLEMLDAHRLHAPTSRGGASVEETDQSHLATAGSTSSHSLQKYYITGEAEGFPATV
Briefly: ER transactivation assay in ERE-Luc B17 cells (luciferase reporter). Type of series: cell-based. As to the method:
The ability of the novel compounds to transcriptionally activate ERs was tested in ERE-Luc B 17 cells, a clone of the breast cancer cell line MCF-7 stably transfected with a reporter constituted by the luciferase gene driven by an estrogen-regulated synthetic promoter previously generated and tested in our laboratories.
Cells were split twice a week by seeding 2 × 10^6 cells in 100 mm diameter Petri (Corning) dishes.
After 24 h cells were rinsed once with PBS before preparing the protein extract for the determination of luciferase content. Each experiment was carried out in duplicate.
Luciferase enzymatic activity was measured in cells or selected tissue homogenates by a luminometer (Glomax™96 microplate luminometer; Promega) using Promega standard luciferin (Beetle Luciferin Potassium Salt) and expressed as Relative Light Units over 10 sec/μg protein (RLU/μg protein). Proteins concentrations were measured by Bradford.
Analysis of transactivation data and calculation of EC50 values were performed by means of sigmoidal dose-response (variable slope) using PRISM5 software (GraphPad Software Inc.).
In general terms: A reporter such as luciferase makes a cellular process visible.

A further series has as its system ERE-Luc mice. Briefly: Uterus weight of ERE-Luc mice. The class given is in vivo, mouse. To be noted: 200 µg/kg s.c., 6 h after treatment, n = 4. The text has this:
The final study aiming at investigating the systemic effect of the NCE was done by measuring the uterus weight of all treated animal as the golden standard for the quantitative measure of estrogenic compounds.

Series [2] concerns MITO-Luc mice (reporter of mitosis). Briefly: Proliferation in the wound area, in vivo BLI of MITO-Luc mice. Also on record: species or system mouse. The text has this:
Wound healing is a dynamic process consisting of four continuous, overlapping, and precisely programmed phases: hemostasis, inflammation, proliferation and tissue growth (proliferation) and remodeling (maturation). The healing effect of estrogens may be exerted at several levels, certainly the ability of the hormone to accelerate macrophage polarization towards the M2-reparative polarization stage plays a relevant role, however estrogens may also facilitate local cell proliferation and the formation of the granulation tissue, epithelialization, and wound contraction.
The experiments were done with the 1e compound as completely deprived of any activity on the uterus (Fig. 6). […] Photon emission was measured in the wound area at the following time: 0, 24, 48 and 72 hours post-treatment.
ERE-Luc and MITO-Luc mice were ovariectomized at two months of age; the experiment was done 2 weeks after surgery to allow the animals to recover and to decrease the levels of circulating estrogens. The animals were fed ad libitum with a special estrogen free diet (AIN 93 M, Mucedola) (Ciana et al. Endocrinology 2005) and housed in individually ventilated plastic cages within a temperature range of 22–25 °C, relative humidity of 50% ± 10% and under an automatic cycle of 12 h light/dark (lights on at 07:00 am). All animal experimentation was carried out in accordance with the ARRIVE and European Guidelines for Animal Care. All animal experiments were approved by the Italian Ministry of Research and University and controlled by a Departmental panel of experts. For the correct dosage of the compounds, the body weight of the animals (on empty stomach, fasted for at least 12–14 hours) was determined immediately before the treatment.
Ovariectomy was carried out as previously described. Wound healing was done after shaving by VEET depilatory cream a day before the treatment. The 1 cm full-thickness incisional wound was made through the skin and panniculus carnosus muscle of ovariectomized MITO-luc using a surgical scalpel (blade n°10, carbon steel, Swann-Morton Ltd). Round full-thickness wounds were done by cutting out a section of full-thickness skin (around 9 mm in diameter) using fine scissors on the dorsal skin of the isoflurane-anesthetized animal. […]
For the semi-quantitative analysis of in vivo photon emission, animals were injected i.p. with 80 mg/kg of luciferin (Beetle Luciferin Potassium Salt; Promega, Madison, WI, USA) 15 min prior the imaging session. […] Photon emission in selected body areas was measured using the Living Image Software (Caliper, PerkinElmer company). The analysis was done in ventral view: whole body, thymus, hepatic area, abdomen, limbs, vagina and in dorsal view in wound area and expressed as photon/second/cm2/steradiant (p/s/cm2/sr).

Series [3] concerns MITO-Luc mice. Briefly: Wound area measurement in MITO-Luc mice. The class given is in vivo, mouse. Particulars: 200 µg/kg s.c., 72 hours after treatment (vehicle 50%). As to the method:
To investigate to which extent the increased proliferation observed after the pharmacological treatments was functional to the healing process, we measured the size of the wound (Fig. 9a).
Ovariectomy was carried out as previously described. Wound healing was done after shaving by VEET depilatory cream a day before the treatment. The 1 cm full-thickness incisional wound was made through the skin and panniculus carnosus muscle of ovariectomized MITO-luc using a surgical scalpel (blade n°10, carbon steel, Swann-Morton Ltd). Round full-thickness wounds were done by cutting out a section of full-thickness skin (around 9 mm in diameter) using fine scissors on the dorsal skin of the isoflurane-anesthetized animal. For in vivo treatment the compounds were administered onto the subcutaneous area surrounding the wound by multiple subcutaneous injection, immediately after the generation of the wound.

Molecules are shown by their SMILES.

`CCCCOC(=O)CCC#C[C@]1(O)CC[C@H]2[C@@H]3CCc4cc(O)ccc4[C@H]3CC[C@@]21C` [1e, 3,17β-Hydroxy-17α-(4′carbobutoxy-1′-butyn-1′-yl)estra-1,3,5-(10)-triene]: the “number of macrophages (Iba1 positive) in the wound area lower than in controls” value in the series with MITO-Luc mice [1] was determined as 25%. Also, the EC50 on ERs (ERE-Luc B17 cells (MCF-7 clone), 24 h, luciferase activity, sigmoidal dose-response, read-out: EC50 (transactivation potency)) turned out to be 1.3 nM. The compound further showed a fold induction at 10 µM on ERs (ERE-Luc B17 cells, 10^-5 M of compound respect to vehicle) of 2.6. Also, the “weight of the uterus versus controls” value in the series on ERE-Luc mice is on record as “indistinguishable from controls”. Also, the “increase of photon emission from wound” value in series [2] (200 µg/kg s.c. around wound, 72 h versus time 0, ovx MITO-Luc) was 87%. Further, in series [2] (200 µg/kg s.c., 48 hours after administration), the “photon emission from the wound area” value is “significantly increased”. This compound registered a wound area reduction with MITO-Luc mice [3] of 73%.
